# Patent publication US20100261710A1, “HDAC Inhibitors” (ARQULE, INC., priority 2007, published 2010)
# Experiments:
# HDAC1 = target: T1, HDAC1 (Homo sapiens, UniProt Q13547); assay: HDAC-1 immunocapture fluorescent biochemical assay (HeLa lysate); conditions: HDAC1 immunocaptured from HeLa extract
# T1 construct: cell extract containing HDAC (HeLa in these experiments); endogenous in cells; host or cells: HeLa cell extract
# Protocol: The HDAC-1 assay represents a novel immunocapture assay procedure. […] The HDAC1 is captured on a protein A coated plate using HDAC1 specific antibody, and is then allowed to react with the substrate.
# This assay in performed in four general steps. In the first step (FIG. 1A), cell extract containing HDAC (HeLa in these experiments) is incubated with (cell signaling) rabbit polyclonal HDAC1 antibody (rabbit IgG antibody is used for background control) to allow binding of the enzyme to the antibody. In the second step, the complexed mixture is added to the protein A covered plate which captures the antibody. In the third step, after washing away unbound proteins, substrate and inhibitor are added and deacetylation is allowed to occur. […] The plate is then read on either Victor or Perkin Elmer Envision system using Umbilliferone filter set.
# • A. HeLa extract complexed with HDAC1 antibody working solution (in DPBS):
# Compound working solution (in HDAC buffer):
# Compounds diluted in assay buffer at 2× Screening concentration. • D. Activator solution:
# Trypsin (10 mg/mL) diluted 1:1600 in assay buffer containing 4 μM TSA.
# Complexing of extract with antibody was carried out at room temperature for 60 min with rocking. Binding of complexes onto protein A plate was carried out at room temperature for 60 min in 50 μL. Reaction was carried out in […], in the protein A plate for 60 minutes at 37° C. 40 μL of the reaction was moved into white ½ area plate for activation and reading.
# • 1. Set PIERCE Protein A plate to block with 150 μof 5% BSA in TB ST for 60 min at room temperature. • 2. […] Dilute complexes further ([…]) by addition of 3.5 mL of PBS (final total volume of 5 mL). • 4. Wash blocked protein A plate prior to complex addition with TBST. • 5. Add 50 μl of diluted complexes to Protein A plate and incubate for 60 min at room temperature. • 6. Wash plate with TB ST. • 7. Add 25 μl of diluted compounds (in HDAC buffer) to each well and incubate for 10 min at room temperature. • 8. […] Move 40 μl of reaction to a white plate and add 20 μl of activator/developer solution, mix thoroughly. • 10. Read plate.
# [1] = tested on: HDACs (nuclear HeLa extract); assay: pan-HDAC fluorescent biochemical assay with nuclear HeLa extract; conditions: HDAC peptide substrate, 60 min at 37° C.
# Protocol: Substrate was synthesized in house. Stocks were prepared in DMSO (10 mM).
# Compound working solution: Compounds dissolved in assay buffer at 4× Screening concentration. Activator solution: Trypsin (10 mg/mL) diluted 1:1600 in Assay Buffer containing 4 μM TSA.
# Total reaction Volume: 40 μL
# Reaction was allowed to run for 60 minutes at 37° C.
# 2. Combine in a white ½ area well plate: 10 μl of 4× compound (or buffer), 15 μl of substrate and 15 μl of HeLa extract. Mix well
# 3. Incubate at 37° C. for 60 min.
# 4. Prepare Activator solution. Dilute Trypsin 1:1600 in Assay Buffer+4μM TSA. 20 μl is needed per assay point.
# 5. Add 20 μl of prepared activator solution and mix thoroughly.
# The hydroxamic-acid based compounds of the present invention were tested in the biochemical assay for their pan-HDAC inhibitory activity.
# Hut78 cells = assay: MTS cell viability assay, Hut78; type: cell-based; conditions: Homo sapiens; Hut78, 72 hr; read-out: Hut78, IG50, MTS
# Protocol: (§1) The MTS cell viability assay was used to determine the potency of proliferation inhibitor with. MTS measures mitochondrial dehydrogenase activity and serves as surrogate readout for the number of viable cells.
# (§2) For MTS assay, cells were plated in 96-well plates at 2000 cells per well and incubated in the presence of compounds for 72 hr. MTS was added to each well as instructed by manufacture (Promega) and plates were incubated for 4 h at 37° C. The absorbance of each well was measured at 490 nm using a microplate reader.
# MJ cells = assay: MTS cell viability assay, MJ; type: cell-based; conditions: 72 hr, read-out: MJ, IG50, MTS
# Protocol: as §1, §2
# HDAC5 = HDAC5 (Homo sapiens, UniProt Q9UQL6); assay: HDAC isoform assay, HDAC5
# HDAC6 = target: T2, HDAC6 (Homo sapiens, UniProt Q9UBN7); assay: HDAC isoform assay, HDAC6
# T2 sequence (Q9UBN7 1-1215): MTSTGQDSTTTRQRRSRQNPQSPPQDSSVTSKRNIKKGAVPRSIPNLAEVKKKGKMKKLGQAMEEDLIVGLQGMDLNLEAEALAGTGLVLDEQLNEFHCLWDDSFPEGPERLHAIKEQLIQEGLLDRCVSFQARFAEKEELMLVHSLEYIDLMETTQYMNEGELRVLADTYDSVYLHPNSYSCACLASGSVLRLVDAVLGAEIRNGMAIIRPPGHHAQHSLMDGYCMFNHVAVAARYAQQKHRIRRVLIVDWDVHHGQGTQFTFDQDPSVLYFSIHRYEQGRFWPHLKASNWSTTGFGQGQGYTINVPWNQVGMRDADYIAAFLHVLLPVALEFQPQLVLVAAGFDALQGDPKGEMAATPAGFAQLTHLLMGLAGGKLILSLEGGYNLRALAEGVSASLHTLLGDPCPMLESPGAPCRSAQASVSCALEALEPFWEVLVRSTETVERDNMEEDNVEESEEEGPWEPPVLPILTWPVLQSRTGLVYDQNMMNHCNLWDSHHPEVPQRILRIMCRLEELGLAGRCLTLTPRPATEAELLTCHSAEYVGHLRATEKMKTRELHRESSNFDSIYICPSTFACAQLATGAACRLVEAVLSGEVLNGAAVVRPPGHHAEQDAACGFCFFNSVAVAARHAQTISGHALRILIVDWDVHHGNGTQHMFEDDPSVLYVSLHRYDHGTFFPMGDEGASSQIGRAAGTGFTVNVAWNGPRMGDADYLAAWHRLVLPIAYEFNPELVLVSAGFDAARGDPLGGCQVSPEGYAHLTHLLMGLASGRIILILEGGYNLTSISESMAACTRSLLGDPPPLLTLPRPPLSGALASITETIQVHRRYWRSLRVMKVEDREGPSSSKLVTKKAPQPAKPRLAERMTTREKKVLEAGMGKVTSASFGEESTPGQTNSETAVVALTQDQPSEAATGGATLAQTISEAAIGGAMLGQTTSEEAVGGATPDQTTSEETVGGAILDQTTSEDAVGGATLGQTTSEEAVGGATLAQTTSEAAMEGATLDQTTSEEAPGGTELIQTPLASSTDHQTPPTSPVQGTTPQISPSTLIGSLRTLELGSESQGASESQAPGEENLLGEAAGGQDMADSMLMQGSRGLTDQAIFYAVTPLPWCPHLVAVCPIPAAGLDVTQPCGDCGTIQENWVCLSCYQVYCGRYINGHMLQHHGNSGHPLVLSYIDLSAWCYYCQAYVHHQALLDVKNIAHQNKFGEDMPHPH
# HDAC5, sequence (Q9UQL6 whole entry, canonical isoform): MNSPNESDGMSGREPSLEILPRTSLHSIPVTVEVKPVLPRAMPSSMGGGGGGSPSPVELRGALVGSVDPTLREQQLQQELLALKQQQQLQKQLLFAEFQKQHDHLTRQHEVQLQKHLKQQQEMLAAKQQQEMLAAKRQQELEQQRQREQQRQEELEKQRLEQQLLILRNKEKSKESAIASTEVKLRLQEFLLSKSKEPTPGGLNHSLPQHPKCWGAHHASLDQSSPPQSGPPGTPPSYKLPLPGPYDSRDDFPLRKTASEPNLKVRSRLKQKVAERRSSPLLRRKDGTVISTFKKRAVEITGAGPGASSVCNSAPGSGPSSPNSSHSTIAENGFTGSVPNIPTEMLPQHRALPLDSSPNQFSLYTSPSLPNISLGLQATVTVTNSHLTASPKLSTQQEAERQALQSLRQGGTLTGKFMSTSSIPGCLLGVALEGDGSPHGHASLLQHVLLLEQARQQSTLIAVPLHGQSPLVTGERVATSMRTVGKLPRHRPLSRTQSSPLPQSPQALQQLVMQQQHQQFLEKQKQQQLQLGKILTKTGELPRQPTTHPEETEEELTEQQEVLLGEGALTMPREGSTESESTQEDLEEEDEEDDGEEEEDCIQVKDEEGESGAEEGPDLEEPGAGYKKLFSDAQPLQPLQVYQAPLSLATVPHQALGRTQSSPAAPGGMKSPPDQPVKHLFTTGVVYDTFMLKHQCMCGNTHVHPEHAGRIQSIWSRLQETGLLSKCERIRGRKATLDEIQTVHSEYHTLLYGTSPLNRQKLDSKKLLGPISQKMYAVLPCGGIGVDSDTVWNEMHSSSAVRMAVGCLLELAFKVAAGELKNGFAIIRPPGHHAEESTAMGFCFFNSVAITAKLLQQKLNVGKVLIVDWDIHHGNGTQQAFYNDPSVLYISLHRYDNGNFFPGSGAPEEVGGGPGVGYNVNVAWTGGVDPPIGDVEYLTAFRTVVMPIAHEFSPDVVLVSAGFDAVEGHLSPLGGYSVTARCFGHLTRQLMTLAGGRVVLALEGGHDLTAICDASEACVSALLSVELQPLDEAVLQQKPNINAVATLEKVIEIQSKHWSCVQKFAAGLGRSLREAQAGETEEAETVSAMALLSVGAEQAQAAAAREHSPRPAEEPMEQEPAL
# T1 sequence (Q13547 whole entry): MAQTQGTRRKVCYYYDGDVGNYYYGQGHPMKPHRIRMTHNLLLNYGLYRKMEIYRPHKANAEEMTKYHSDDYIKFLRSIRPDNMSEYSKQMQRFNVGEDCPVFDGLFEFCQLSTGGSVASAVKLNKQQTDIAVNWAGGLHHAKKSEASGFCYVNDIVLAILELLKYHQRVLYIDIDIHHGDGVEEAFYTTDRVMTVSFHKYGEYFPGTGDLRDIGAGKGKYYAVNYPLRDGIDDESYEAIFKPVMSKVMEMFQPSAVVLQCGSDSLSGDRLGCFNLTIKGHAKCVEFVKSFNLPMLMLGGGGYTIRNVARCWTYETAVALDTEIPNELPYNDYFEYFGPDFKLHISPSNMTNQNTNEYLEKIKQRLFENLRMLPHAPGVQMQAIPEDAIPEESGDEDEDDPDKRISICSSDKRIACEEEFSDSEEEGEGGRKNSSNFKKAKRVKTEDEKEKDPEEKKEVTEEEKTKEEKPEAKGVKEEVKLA
SMILES,IC50 (HDAC1) [µM],IC50 [1] [µM],IC50 (Hut78 cells) [µM],IC50 (MJ cells) [µM],IC50 (HDAC5) [µM],IC50 (HDAC6) [µM]
"O=C(CCCCCCNC(=O)Nc1cn2c3c(cccc13)CCC2)NO [compound 11, 7-[(5,6-dihydro-4H-pyrrolo[3,2,1-ij]quinolin-1-ylcarbamoyl)amino]-N-hydroxyheptanamide]",0.022,0.0279,0.181,0.47,0.353,0.0664
"O=C(CCCCCNC(=O)C(=O)c1cn2c3c(cccc13)CCC2)NO [compound 8, 6-{[5,6-dihydro-4H-pyrrolo[3,2,1-ij]quinolin-1-yl(oxo)acetyl]amino}-N-hydroxyhexanamide]",0.045,0.115,–,7.68,0.163,0.0776
"O=C(CCCCCNC(=O)Nc1cn2c3c(cccc13)CCC2)NO [compound 13, 6-[(5,6-dihydro-4H-pyrrolo[3,2,1-ij]quinolin-1-ylcarbamoyl)amino]-N-hydroxyhexanamide]",0.0189,0.0322,1.27,–,0.201,0.0632
"O=C(CCCCCNC(=O)c1cn2c3c(cccc13)CCC2)NO [compound 2, N-[6-(hydroxyamino)-6-oxohexyl]-5,6-dihydro-4H-pyrrolo[3,2,1-ij]quinoline-1-carboxamide]",0.0132,0.0574,2.92,5,0.0911,0.0672
"O=C(CCCNC(=O)C(=O)c1cn2c3c(cccc13)CCC2)NO [compound 9, 4-{[5,6-dihydro-4H-pyrrolo[3,2,1-ij]quinolin-1-yl(oxo)acetyl]amino}-N-hydroxybutanamide]",0.583,0.602,0.903,4.11,–,0.692
"O=C(CCCCCCNC(=O)c1cn2c3c(cccc13)CCC2)NO [compound 3, N-[7-(hydroxyamino)-7-oxoheptyl]-5,6-dihydro-4H-pyrrolo[3,2,1-ij]quinoline-1-carboxamide]",0.041,0.0698,0.24,0.12,0.095,0.158
"O=C(CCCCCCNC(=O)C(=O)c1cn2c3c(cccc13)CCC2)NO [compound 12, 7-{[5,6-dihydro-4H-pyrrolo[3,2,1-ij]quinolin-1-yl(oxo)acetyl]amino}-N-hydroxyheptanamide]",0.0904,0.126,0.174,0.13,0.26,0.134
